Patent US20020137929A1, “1 - (3-heterocyclylphenyl) isothiourea, -isourea, -guanidine and -amidine herbicidal agents” (Intellectual Property Department, BASF Aktiengesellschaft, priority 1998, published 2002)

What was measured:
GALAP (Galium) = assay: Postemergence herbicidal evaluation; format: in vivo, Galium aparine; details: postemergence
In short: (§1)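 Two-week-old seedlings sprayed with compound in 50/50 acetone/water plus 0.5% TWEEN 20, at about 0.0156 to 0.500 kg/ha, nozzle at 40 psi. Kept in greenhouse; rated visually 4-5 weeks after treatment on a 0-9 scale versus control, repeat tests averaged.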

[1] = tested on: IPOHE (Morningglory, Ivyleaf); assay: Postemergence herbicidal evaluation; format: in vivo, Ipomoea hederacea; details: postemergence
In short: as §1

SETVI (Foxtail, Green) [2] = assay: Postemergence herbicidal evaluation; format: in vivo, Setaria viridis; details: postemergence
In short: as §1

[3] = tested on: TRZAWR (Wheat, Winter, cv Riband); assay: Postemergence herbicidal evaluation; format: in vivo, Triticum aestivum; details: postemergence
In short: as §1

ABUTH (Velvetleaf) = assay: Preemergence herbicidal evaluation; format: in vivo, Abutilon theophrasti; details: preemergence, rated 4-5 weeks after treatment, 0-9 scale
In short: (§2)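 In this greenhouse assay, monocot and dicot seeds are planted in soil and treated prior to emergence with an aqueous acetone spray (about 0.0156-0.500 kg/ha). Plants are assessed visually against control on a 0-9 scale after 4-5 weeks.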

[4] = tested on: IPOHE (Morningglory, Ivyleaf); assay: Preemergence herbicidal evaluation; format: in vivo, Ipomoea hederacea; details: preemergence, rated 4-5 weeks after treatment, 0-9 scale
In short: as §2

ECHCG (Barnyardgrass) = assay: Preemergence herbicidal evaluation; format: in vivo, Echinochloa crus-galli; details: preemergence, rated 4-5 weeks after treatment, 0-9 scale
In short: as §2

SETVI (Foxtail, Green) [5] = assay: Preemergence herbicidal evaluation; format: in vivo, Setaria viridis; details: preemergence, rated 4-5 weeks after treatment, 0-9 scale
In short: as §2

ZEAMX (Corn, Field) = assay: Preemergence herbicidal evaluation; format: in vivo, Zea mays; details: preemergence, rated 4-5 weeks after treatment, 0-9 scale
In short: as §2

[6] = tested on: ECHORC (Watergrass (Calif.)); assay: Preemergence weed control under flooded paddy conditions; format: in vivo, Echinochloa oryzoides; details: rated 3-4 weeks after treatment
In short: (§3)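 Flooded-pot preemergence screen with silt loam and seeds in the upper 0.5 cm. Dose about 0.0313 to 0.500 kg/ha, delivered into flood water; visual 0-9 score after 3 to 4 weeks.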

CYPIR (Rice Flatsedge) = assay: as above; format: in vivo, Cyperus iria; details: rated 3-4 weeks after treatment
In short: as §3

MOOVA (Monochoria) = assay: as above; format: in vivo, Monochoria vaginalis; details: rated 3-4 weeks after treatment
In short: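 Seeds or propagules sown in top 0.5 cm of silt loam soil, flooded 1.5 to 3 cm above surface throughout. Compound in 50/50 v/v aqueous/acetone pipetted into flood water at about 0.0313 to 0.500 kg/ha. Visual 0-9 rating versus control after three to four weeks in greenhouse.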

[7] = tested on: ECHORC (Watergrass (Calif.)); assay: Postemergence weed control under flooded paddy conditions; format: in vivo, Echinochloa oryzoides; details: postemergence weeds, rated 3 to 4 weeks after treatment
In short: (§4)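 Weeds 3 to 5 cm tall and rice seedlings at the 1.5 to 2.5 leaf stage were flooded, with water held 1.5 to 3 cm above the soil. Compounds in 50/50 v/v aqueous/acetone went into the flood water at about 0.0313 to 0.500 kg/ha. Visual 0-9 ratings versus control were made 3 to 4 weeks later.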

[8] = tested on: SAGPY (Arrowhead (Pygmaea)); assay: as above; format: in vivo, Sagittaria pygmaea; details: postemergence weeds, rated 3 to 4 weeks after treatment
In short: as §4

Compound: CC(C)OC(=O)CC1SC(=Nc2cc(-n3c(=O)cc(C(F)(F)F)n(C)c3=O)c(F)cc2Cl)N(C)C1=O (stereo not drawn) [Compound 89, Isopropyl 2-{{2-chloro-5-[3,6-dihydro-3-methyl-2,6-dioxo-4-(trifluoromethyl)-1(2H)-pyrimidinyl]-4-fluorophenyl}imino}-3-methyl-4-oxo-5-thiazolidineacetate]
- GALAP herbicidal rating (GALAP (Galium); rate 0.0158 kg/ha): 3.0
- GALAP herbicidal rating (GALAP (Galium); rate 0.0313 kg/ha): 4.0
- GALAP herbicidal rating (GALAP (Galium); rate 0.0625 kg/ha): 5.0
- GALAP herbicidal rating (GALAP (Galium); rate 0.1250 kg/ha): 9.0
- IPOHE herbicidal rating ([1]; rate 0.0158 kg/ha): 9.0
- IPOHE herbicidal rating ([1]; rate 0.0313 kg/ha): 9.0
- IPOHE herbicidal rating ([1]; rate 0.0625 kg/ha): 9.0
- IPOHE herbicidal rating ([1]; rate 0.1250 kg/ha): 9.0
- SETVI herbicidal rating (SETVI (Foxtail, Green) [2]; rate 0.0158 kg/ha): 7.0
- SETVI herbicidal rating (SETVI (Foxtail, Green) [2]; rate 0.0313 kg/ha): 9.0
- SETVI herbicidal rating (SETVI (Foxtail, Green) [2]; rate 0.0625 kg/ha): 9.0
- SETVI herbicidal rating (SETVI (Foxtail, Green) [2]; rate 0.1250 kg/ha): 9.0
- TRZAWR herbicidal rating ([3]; rate 0.0158 kg/ha): 5.5
- TRZAWR herbicidal rating ([3]; rate 0.0313 kg/ha): 7.0
- TRZAWR herbicidal rating ([3]; rate 0.0625 kg/ha): 7.0
- TRZAWR herbicidal rating ([3]; rate 0.1250 kg/ha): 7.0
- ABUTH rating (ABUTH (Velvetleaf); 0.0156 kg/ha): 1.5
- ABUTH rating (ABUTH (Velvetleaf); 0.0313 kg/ha): 6.5
- ABUTH rating (ABUTH (Velvetleaf); 0.0625 kg/ha): 9.0
- ABUTH rating (ABUTH (Velvetleaf); 0.1250 kg/ha): 9.0
- ABUTH rating (ABUTH (Velvetleaf); 0.2500 kg/ha): 9.0
- ABUTH rating (ABUTH (Velvetleaf); 0.5000 kg/ha): 9.0
- IPOHE rating ([4]; 0.0156 kg/ha): 0.0
- IPOHE rating ([4]; 0.0313 kg/ha): 0.0
- IPOHE rating ([4]; 0.0625 kg/ha): 0.5
- IPOHE rating ([4]; 0.1250 kg/ha): 1.5
- IPOHE rating ([4]; 0.2500 kg/ha): 9.0
- IPOHE rating ([4]; 0.5000 kg/ha): 9.0
- ECHCG rating (ECHCG (Barnyardgrass); 0.0156 kg/ha): 0.0
- ECHCG rating (ECHCG (Barnyardgrass); 0.0313 kg/ha): 0.0
- ECHCG rating (ECHCG (Barnyardgrass); 0.0625 kg/ha): 0.0
- ECHCG rating (ECHCG (Barnyardgrass); 0.1250 kg/ha): 2.0
- ECHCG rating (ECHCG (Barnyardgrass); 0.2500 kg/ha): 5.5
- ECHCG rating (ECHCG (Barnyardgrass); 0.5000 kg/ha): 9.0
- SETVI rating (SETVI (Foxtail, Green) [5]; 0.0156 kg/ha): 0.0
- SETVI rating (SETVI (Foxtail, Green) [5]; 0.0313 kg/ha): 1.5
- SETVI rating (SETVI (Foxtail, Green) [5]; 0.0625 kg/ha): 1.5
- SETVI rating (SETVI (Foxtail, Green) [5]; 0.1250 kg/ha): 9.0
- SETVI rating (SETVI (Foxtail, Green) [5]; 0.2500 kg/ha): 9.0
- SETVI rating (SETVI (Foxtail, Green) [5]; 0.5000 kg/ha): 9.0
- ZEAMX rating (ZEAMX (Corn, Field); 0.0156 kg/ha): 0.0
- ZEAMX rating (ZEAMX (Corn, Field); 0.0313 kg/ha): 0.0
- ZEAMX rating (ZEAMX (Corn, Field); 0.0625 kg/ha): 1.0
- ZEAMX rating (ZEAMX (Corn, Field); 0.1250 kg/ha): 6.5
- ZEAMX rating (ZEAMX (Corn, Field); 0.2500 kg/ha): 7.5
- ZEAMX rating (ZEAMX (Corn, Field); 0.5000 kg/ha): 9.0
- ECHORC herbicidal effect rating ([6]; 0.0313 kg/ha): 3.0
- ECHORC herbicidal effect rating ([6]; 0.0625 kg/ha): 4.0
- ECHORC herbicidal effect rating ([6]; 0.1250 kg/ha): 5.0
- ECHORC herbicidal effect rating ([6]; 0.2500 kg/ha): 6.0
- CYPIR herbicidal effect rating (CYPIR (Rice Flatsedge); 0.0313 kg/ha): 0.0
- CYPIR herbicidal effect rating (CYPIR (Rice Flatsedge); 0.0625 kg/ha): 0.0
- CYPIR herbicidal effect rating (CYPIR (Rice Flatsedge); 0.1250 kg/ha): 2.0
- CYPIR herbicidal effect rating (CYPIR (Rice Flatsedge); 0.2500 kg/ha): 4.0
- MOOVA herbicidal effect rating (MOOVA (Monochoria); 0.0313 kg/ha): 9.0
- MOOVA herbicidal effect rating (MOOVA (Monochoria); 0.0625 kg/ha): 9.0
- MOOVA herbicidal effect rating (MOOVA (Monochoria); 0.1250 kg/ha): 9.0
- MOOVA herbicidal effect rating (MOOVA (Monochoria); 0.2500 kg/ha): 9.0
- Herbicidal rating ECHORC ([7]; Rate 0.0313 kg/ha): 3.0
- Herbicidal rating ECHORC ([7]; Rate 0.0625 kg/ha): 4.0
- Herbicidal rating ECHORC ([7]; Rate 0.1250 kg/ha): 5.0
- Herbicidal rating ECHORC ([7]; Rate 0.2500 kg/ha): 6.0
- Herbicidal rating SAGPY ([8]; Rate 0.0313 kg/ha): 4.0
- Herbicidal rating SAGPY ([8]; Rate 0.0625 kg/ha): 5.0
- Herbicidal rating SAGPY ([8]; Rate 0.1250 kg/ha): 9.0
- Herbicidal rating SAGPY ([8]; Rate 0.2500 kg/ha): 9.0
